Data set [1] in a line: Half life in ICR mouse at 1 mg/kg, iv measured upto 1440 mins by LC-MS/MS analysis. Format: ADME, organism-based. The settings on record: in vivo, 24 h.
In data set [2] the test system is NCI-H1703. As to the kind of experiment: Antiproliferative activity against human NCI-H1703 cells harboring wild type KRAS incubated for 72 hrs by MTT assay. The settings on record: NCI-H1703, 72 h. Format: functional, cell-based.
A short description of data set [3]: AUC in ICR mouse at 10 mg/kg, po measured upto 1440 mins by LC-MS/MS analysis. Format: ADME, organism-based. Further details: time < 1440 min, dose 10 mg/kg, route po. The settings on record: in vivo.
Data set [4] in a line: Oral bioavailability in ICR mouse at 10 mg/kg measured upto 1440 mins by LC-MS/MS analysis. Format: ADME, organism-based. The settings on record: in vivo.
Data set [5] addresses Ataxin-3 (Homo sapiens, UniProt P54252). Nature of the data set: Inhibition of Ataxin-3 (unknown origin) using Ub-Rho measured after 0.5 to 3 hrs.
Data set [6] can be described thus: AUC in ICR mouse at 1 mg/kg, iv measured upto 1440 mins by LC-MS/MS analysis. Further details: time < 1440 min, dose 1 mg/kg, route iv. The note with it: in vivo, 24 h. Format: ADME, organism-based.
Data set [7] can be described thus: Cmax in ICR mouse at 10 mg/kg, po measured upto 1440 mins by LC-MS/MS analysis. Format: ADME, organism-based. Details: dose 10 mg/kg, time < 1440 min, route po. The settings on record: in vivo.
For data set [8], the target named is T1, Ubiquitin thioesterase OTUB1 (Homo sapiens, UniProt Q96FW1). Nature of the data set: Inhibition of OTUB1 in human NCI-H1975 cells assessed as reduction in UBE2N protein level at 500 nM measured for 24 hrs by immunoblotting analysis. The class given is cell-based.
T1 sequence (Q96FW1 whole entry): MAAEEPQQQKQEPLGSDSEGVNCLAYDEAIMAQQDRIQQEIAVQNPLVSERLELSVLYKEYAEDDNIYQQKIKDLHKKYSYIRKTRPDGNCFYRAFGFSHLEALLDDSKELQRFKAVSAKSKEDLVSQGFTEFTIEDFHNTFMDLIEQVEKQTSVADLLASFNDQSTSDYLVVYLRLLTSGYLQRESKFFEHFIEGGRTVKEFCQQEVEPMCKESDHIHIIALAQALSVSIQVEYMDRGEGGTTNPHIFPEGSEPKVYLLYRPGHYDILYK
In data set [9] the test system is A549. Nature of the data set: Antiproliferative activity against human A549 cells harboring KRAS mutant incubated for 72 hrs by MTT assay. Format: functional, cell-based. The note with it: A549, 72 h.
In data set [10] the test system is EBC-1. As to the kind of experiment: Antiproliferative activity against human EBC-1 cells harboring wild type KRAS incubated for 72 hrs by MTT assay. The class given is functional, cell-based. The settings on record: EBC-1, 72 h.
Data set [11] can be described thus: Tmax in ICR mouse at 10 mg/kg, po measured upto 1440 mins by LC-MS/MS analysis. The settings on record: in vivo. Format: ADME, organism-based.
The target in data set [12] is T2, Ubiquitin carboxyl-terminal hydrolase 8 (Homo sapiens) (UniProt P40818).
T2 sequence (whole entry): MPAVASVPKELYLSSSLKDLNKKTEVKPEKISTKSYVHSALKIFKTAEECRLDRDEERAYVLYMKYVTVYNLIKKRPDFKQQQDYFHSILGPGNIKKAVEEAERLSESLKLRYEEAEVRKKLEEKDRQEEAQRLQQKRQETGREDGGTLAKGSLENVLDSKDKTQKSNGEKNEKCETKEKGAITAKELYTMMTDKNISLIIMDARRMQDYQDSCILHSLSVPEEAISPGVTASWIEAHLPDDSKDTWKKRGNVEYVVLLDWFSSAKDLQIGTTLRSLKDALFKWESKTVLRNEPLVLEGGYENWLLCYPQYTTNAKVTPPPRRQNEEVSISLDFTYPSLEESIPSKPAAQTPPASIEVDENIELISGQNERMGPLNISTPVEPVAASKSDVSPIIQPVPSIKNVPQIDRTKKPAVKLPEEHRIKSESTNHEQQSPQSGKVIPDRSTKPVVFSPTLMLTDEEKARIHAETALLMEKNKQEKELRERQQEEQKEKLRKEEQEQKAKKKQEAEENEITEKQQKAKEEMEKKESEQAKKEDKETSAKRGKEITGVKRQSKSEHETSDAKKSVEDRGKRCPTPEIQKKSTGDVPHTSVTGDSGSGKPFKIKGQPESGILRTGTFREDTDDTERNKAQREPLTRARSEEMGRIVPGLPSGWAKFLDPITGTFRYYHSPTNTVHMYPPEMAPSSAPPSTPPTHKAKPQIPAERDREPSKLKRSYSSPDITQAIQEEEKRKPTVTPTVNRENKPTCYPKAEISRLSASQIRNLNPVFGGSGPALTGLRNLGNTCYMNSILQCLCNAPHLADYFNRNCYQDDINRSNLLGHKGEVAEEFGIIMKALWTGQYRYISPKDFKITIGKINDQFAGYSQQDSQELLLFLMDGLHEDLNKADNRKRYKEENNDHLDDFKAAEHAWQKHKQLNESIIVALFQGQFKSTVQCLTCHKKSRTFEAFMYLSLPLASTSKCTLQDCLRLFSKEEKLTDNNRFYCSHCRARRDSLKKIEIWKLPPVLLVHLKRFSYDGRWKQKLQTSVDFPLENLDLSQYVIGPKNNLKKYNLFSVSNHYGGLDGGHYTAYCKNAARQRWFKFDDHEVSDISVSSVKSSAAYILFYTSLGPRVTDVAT
Nature of the data set: Inhibition of USP8 in human NCI-H1975 cells assessed as reduction in EGFR protein level at 500 nM measured for 24 hrs by immunoblotting analysis. Format: cell-based.

Data set [13] is described as follows: Half life in ICR mouse at 10 mg/kg, po measured upto 1440 mins by LC-MS/MS analysis. Format: ADME, organism-based. The note with it: in vivo.
In data set [14] the test system is NCI-H23. As to the kind of experiment: Antiproliferative activity against human NCI-H23 cells harboring KRAS mutant incubated for 72 hrs by MTT assay. Format: functional, cell-based. The settings on record: NCI-H23, 72 h.
Data set [15] in a line: Volume of distribution at steady state in ICR mouse at 1 mg/kg, iv measured upto 1440 mins by LC-MS/MS analysis. The class given is ADME, organism-based. The settings on record: in vivo, 24 h.
In data set [16] the target is T1, Ubiquitin thioesterase OTUB1. Nature of the data set: Inhibition of N-terminal His-6 tagged OTUB1 (40 to 271 residues) (unknown origin) expressed in Escherichia coli BL21 (DE3) cells at […] using Ub-Rho measured after 0.5 to 3 hrs by fluorescence based Plate reader method relative to control. The settings on record: dose 2.5 µM, time 0.5-3 hrs.
In data set [17] the target is T2, Ubiquitin carboxyl-terminal hydrolase 8 (Homo sapiens). As to the kind of experiment: Destabilization of N-terminal His-6 tagged USP8 (734 to 1110 residues) (unknown origin) expressed in Escherichia coli BL21 (DE3) cells assessed as change in melting temperature at 200 uM measured for 2 hrs in presence of dithiothreitol by SYPRO orange dye based thermal shift assay.

Data set [18] deals with Mus musculus. Nature of the data set: In vivo inhibition of OTUB1 in human NCI-H1975 cells xenografted BALB/c nude mouse model assessed as decrease in OTUB1 level at 15 mg/kg/day, po measured after 5 days by Western blot analysis. The settings on record: time 5.0 day. The class given is functional, organism-based.
Data set [19] has as its system Mus musculus. Nature of the data set: In vivo inhibition of OTUB1 in NCI-H1975 cells xenografted BALB/c nude mouse model assessed as decrease in UBE2N level at 15 mg/kg/day, po measured after 5 days by Western blot analysis. Format: functional, organism-based. The note with it: time 5.0 day.
In data set [20] the test system is NCI-H1975. Nature of the data set: Antitumor activity against human NCI-H1975 cells xenografted in BALB/c nude mouse model assessed as reduction in tumor volume at 5 mg/kg, ip bid for 2 weeks. Format: functional, organism-based.
Data set [21] deals with Mus musculus. Nature of the data set: In vivo inhibition of USP8 in NCI-H1975 cells xenografted BALB/c nude mouse model assessed as decrease in EGFR level at 15 mg/kg/day, po measured after 5 days by Western blot analysis. The settings on record: time 5.0 day. Format: functional, organism-based.
The subject of data set [22] is Mus musculus. As to the kind of experiment: In vivo inhibition of USP8 in human NCI-H1975 cells xenografted BALB/c nude mouse model assessed as decrease in USP8 level at 15 mg/kg/day, po measured after 5 days by Western blot analysis. The note with it: time 5.0 day. Format: functional, organism-based.
Data set [23] deals with NCI-H1975. As to the kind of experiment: Antitumor activity against human NCI-H1975 cells xenografted in BALB/c nude mouse model assessed as reduction of total tumor weight at 5 mg/kg, ip bid for 2 weeks. Format: functional, organism-based.
Data set [24] has as its target T2, Ubiquitin carboxyl-terminal hydrolase 8 (Homo sapiens). Nature of the data set: Inhibition of USP8 in human NCI-H1975 cells assessed as reduction in protein level at 500 nM measured for 24 hrs by immunoblotting analysis. Format: cell-based.

The source made the active and inactive calls. The calls are words filed in the database; no cut-off is given here.

Chain of Ataxin-3 (P54252 whole entry): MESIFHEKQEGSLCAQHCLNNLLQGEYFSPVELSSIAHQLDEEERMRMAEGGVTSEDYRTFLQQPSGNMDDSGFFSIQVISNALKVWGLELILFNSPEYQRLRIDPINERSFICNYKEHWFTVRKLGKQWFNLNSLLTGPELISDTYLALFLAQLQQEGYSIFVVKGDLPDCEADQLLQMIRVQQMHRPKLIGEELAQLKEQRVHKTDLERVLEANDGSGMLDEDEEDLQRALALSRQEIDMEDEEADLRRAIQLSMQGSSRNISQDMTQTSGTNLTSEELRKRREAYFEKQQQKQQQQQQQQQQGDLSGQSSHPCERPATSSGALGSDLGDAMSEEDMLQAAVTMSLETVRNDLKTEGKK

Take `CN1CC[C@@H](Oc2ccc(Cl)c(-c3nc4c(o3)C(=O)c3ccccc3C4=O)c2)C1`: the t1/2 in data set [1] stood at 51.6 min. The IC50 was 113 nM in [2]; above 10000 nM in data set [5]; 701 nM in data set [9]; 138 nM in data set [10]; 266 nM in [14]. This molecule also returned an AUC at 24 h in data set [3] of 229 ng·h/mL. Further, the bioavailability in [4] came to 7.5%. The AUC in data set [6] amounted to 306 ng·h/mL. Besides, the concentration in data set [7] peaked (Cmax) at 313 ng/mL. Moreover, the inhibition result in [8] and in data set [12] was “Active” each time. Besides, the Tmax in data set [11] is 19.8 min. This molecule showed a half-life in [13] of 86.4 min. Besides, the Vdss in [15] is 2.37 L/kg.
In data set [16], `O=C1c2ccccc2C(=O)c2oc(-c3cccnc3)nc21` displayed an inhibition of 100%. Moreover, the IC50 was 93 nM in data set [2]; above 10000 nM in [5]; 662 nM in data set [9]; 122 nM in data set [10]; 281 nM in [14].
`CN1CC[C@@H](Oc2ccc(F)c(-c3nc4c(o3)C(=O)c3ccccc3C4=O)c2Cl)C1` returned a t1/2 in data set [1] of 49.8 min. Further, in data set [17], the ΔTm turned out to be 2 °C. The IC50 in data set [2] was 145 nM; in data set [5] it was above 10000 nM; in data set [9], 1000 nM; in [10], 172 nM; in [14], 431 nM. The molecule also displayed an AUC at 24 h in data set [3] of 3750 ng·h/mL. For the same molecule, in data set [4], the bioavailability came to 27.9%. The molecule also returned an AUC in data set [6] of 1345 ng·h/mL. The result in data set [18], in data set [19], in data set [20], in [21], in data set [22] and in data set [23] was Active. Besides, in [7], the Cmax was 4270 ng/mL. For the same molecule, the inhibition entry in [8], in [12] and in data set [24] was “Active” throughout. The Tmax in [11] was determined as 19.8 min. The half-life in data set [13] is 105 min. The molecule also returned a Vdss in [15] of 0.77 L/kg.
For `CN1CC[C@@H](Oc2ccc(Cl)c(-c3nc4c(o3)C(=O)c3ccccc3C4=O)c2F)C1`, the IC50 in [2] is 173 nM; in data set [5], above 10000 nM; in data set [9] it was 1260 nM; in data set [10] it was 176 nM; in [14], 423 nM.

For the origin of these results see ChEMBL document CHEMBL5108067, “Discovery of Potent OTUB1/USP8 Dual Inhibitors Targeting Proteostasis in Non-Small-Cell Lung Cancer” (J Med Chem, 2022).
